These are literature values, as cited in US20090263514A1, “Cold and flu tonic” (priority 2008, published 2009).

For this data set the following is noted: in humans.

For `O=C(/C=C/C=C/c1ccc2c(c1)OCO2)N1CCCCC1` [piperine], the bioavailability of curcumin result was “enhance bioavailability of curcumin dramatically”.
